Where two headings read alike, the source gives them in different places. No end group written: not given here.
Legend:
[1] = system: P. aeruginosa DSM 1117; conditions: DSM 1117, 20 h
[2] = system: E. faecium (isolate from the gut of the cow); conditions: 20 h
[3] = in vitro; conditions: human
[4] = system: E. coli MG1655; conditions: MG1655, 20 h
[5] = system: A. baumannii (isolate from the human abdominal wall); conditions: 20 h
[6] = system: B. subtilis PY79; conditions: PY79, 20 h
[7] = system: K. pneumoniae DSM 30104; conditions: DSM 30104, 20 h
[8] = system: S. pneumoniae D39; conditions: D39, 20 h
[9] = system: S. aureus DSM 11729 (MRSA); conditions: DSM 11729, 20 h

Substance | MIC P. aeruginosa [1] [µM] | MIC E. faecium [2] [µM] | CC50 at 24 h [3] [µM] | E. coli MIC [4] [µM] | MIC A. baumannii [5] [µM] | B. subtilis MIC [6] [µM] | MIC K. pneumoniae [7] [µM] | CC50 [µM] | MIC S. pneumoniae [8] [µM] | MIC S. aureus (MRSA) [9] [µM] | CC50 [3] [µM]
MNTTSNMIHRAVQQKRISFRAAKLTVLFLFKRRLLRRLLRHHEN-NH2 [AMP #27] | 12.5 | 1.6 | 75.7 | 12.5 | 2.4 | 0.4 | 6.3 |  |  |  | 
H-MCFCRYRFFYRRRIRFFKWGPYFYVWFGFPFGRKAFFLSVFRRRFC-NH2 (cysteines drawn unpaired) [AMP #19] |  |  |  | 25.0 |  | 8.4 |  | > 250 |  |  | 
MAIRIIGRLARVRARVVARVRSRLLADDPPEDLLRVARRRKGRRWLFLS-NH2 [AMP #24] |  | 6.3 | 91.7 | 25.0 |  | 1.6 |  |  |  |  | 
MRRKTPVKWKTFFKALKHKKKIFKKTFEKFKFLAKGPAFLKGFDQKLKS-NH2 [AMP #5] | 3.1 | 1.6 | 68.4 | 2.1 | 1.0 | 0.5 | 0.8 |  | 25.0 |  | 
H-MKEKKFFFFCFKKRRGFYKRRFFCKTTCFTYCFYKPRGTKTMPYVFSE-NH2 (cysteines drawn unpaired) [AMP #14] | 12.5 | 6.3 |  |  | 25.0 |  |  |  |  | 25.0 | 
MKKKKKGILKQNNKKKKYTLFNRMVVFLFLGFIMIIFVQKYKKVIYHK-NH2 [AMP #29] |  |  | > 250 | 12.5 |  | 6.3 |  |  |  |  | 
MKQPSKTKTHFKYFLLFLKSVKKVAGFKKKKKKYHWRSYKEGSCFRKRT-NH2 [AMP #13] | 12.5 | 1.6 | 25.8 | 25.0 | 3.1 | 1.6 | 6.3 |  | 12.5 |  | 
MEAFKKKPRLPLFKVKLTRFLERARGLGSYRIFEFFKKFGVKKFVSSLR-NH2 [AMP #15] | 12.5 | 1.6 | 30.7 | 25.0 | 1.6 | 0.8 | 1.6 |  | 25.0 |  | 
MKLRRRLRTRMVALLVLGVLFLLMLFFIIFLRRMLMRRFRA-NH2 [AMP #26] |  |  |  | 100.0 |  | 37.5 |  |  |  |  | > 250
MWIKWKKPRKWGRRLKKKEKEELGDYIYLYCKVYRLFGFLPYFISKKTA-NH2 [AMP #17] |  | 6.3 | 134 | 12.5 | 6.3 | 6.3 |  |  |  |  | 
H-MCFCFKAGPKICRGLQRKKKKFKYQTSFTKTGFGFLTKPKSPAR-NH2 (cysteines drawn unpaired) [AMP #10] |  |  |  | 50.0 |  | 0.6 |  | 105 |  |  | 
